Values of other authors in US20100047195A1, “LIP BALM AND METHOD OF TREATING LIP CONDITIONS” (priority 2007, published 2010).

Settings: oral isotretinoin; estimated

patients treated who develop cheilitis (cracking, soreness and other inflammation of the lips): over 90%
Structure (SMILES): CC1=C(/C=C/C(C)=C/C=C/C(C)=C\C(=O)O)C(C)(C)CCC1 [isotretinoin, 13-cis-retinoic acid]
